From patent US10934297B2, “5-heteroaryl substituted indazole-3-carboxamides and preparation and use thereof” (Samumed, LLC, priority 2018, dated 2021)
Where two headings read alike, the source gives them in different places.

Tests used:
DYRK1A kinase = DYRK1A kinase (Homo sapiens (Human), UniProt Q13627); assay: DYRK1A kinase assay (Ser/Thr 18 peptide Z-lyte FRET); type: biochemical; conditions: read-out: EC50 (method: IC50)
Summary of the method: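 Kinase reactions with compound ran 1 h at room temperature in duplicate, and development reagent was then added for another hour.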

IL-6 = IL-6 inhibition in LPS-stimulated human peripheral blood mononuclear cells (HTRF); type: cell-based; conditions: for EC50: huPBMCs, LPS 50 ng/mL, 22 hours, IL-6 HTRF; for inhibition at 10 µM: read-out: percent inhibition at 10 μM
Summary of the method: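 HTRF 665/620 nm ratio, read after 3 h antibody incubation at room temperature, quantified IL-6 released by fresh human PBMCs (1×10e6 cells/mL, 1% FBS-RPMI). The cells got compound, then 50 ng/mL LPS at 2 h, followed by a further 22 h at 37° C. EC50 came from DMSO-normalized readings run in duplicate.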

[1] = test system: SW480 colon carcinoma cells; assay: Cell viability assay (CellTiter-Glo) in SW480 colon carcinoma cells; type: cell-based, human; conditions: four days
Summary of the method: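 Viability was taken from CellTiter-Glo ATP luminescence, read about 12 min after reagent addition, relative to DMSO controls. The cells were Sp5-Luc reporter SW480 colon carcinoma cells, 2,000/well in 1% FBS DMEM, exposed to compound for four days at 37 °C.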

[2] = test system: primary human mesenchymal stem cells (hMSCs); assay: Tenocyte differentiation assay (SCXA-positive cells) in hMSCs; type: cell-based; conditions: for percent in parentheses under EC50 >100: given for EC50 >100 μM, meaning not defined in this example; for EC50: hMSCs, 4 days, SCXA positive cells
Excerpt: Representative compounds were screened using primary human mesenchymal stem cells (hMSCs) to determine their ability to induce tenocyte differentiation (process by which tendon is developed).
Primary human mesenchymal stem cells (hMSCs) were purchased from Lonza (Walkersville, Md.) and expanded in Mesenchymal Stem Cell Growth Media (Lonza). Cells between passage 3 and 6 were used for the experiments.
Cells were fixed using 4% formaldehyde (Electron Microscopy Sciences), and stained with anti-Sclerasis (anti-SCXA) antibodies (Abgent, San Diego, Calif.) [Webb S., et.al., Retinoic acid receptor signaling preserves tendon stem cell characteristics and prevents spontaneous differentiation in vitro, Stem Cell Research & Therapy 2016, 7:45] overnight at 4° C. […] Number of cells positive for SCXA in each well was quantified using the CellInsight CX5. Data was normalized to the average of 12 DMSO treated wells on the same plate using Dotmatics Studies module. The normalized averages (fold change over DMSO) of 3 replicate wells for each compound concentration were calculated. Due to solubility limitations of some of the compounds, values for higher doses were manually corrected and curve fitting and EC50 determinations were performed using Dotmatics Studies.

GSK3β kinase = GSK3β kinase (Homo sapiens (Human), UniProt P49841); assay: GSK3β kinase assay (Ser/Thr 09 peptide Z-lyte FRET); type: biochemical; conditions: read-out: EC50 (method: IC50)
Summary of the method: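 Non-radioactive Z-lyte FRET read-out, kinase activity expressed as coumarin/fluorescein emission ratio. Compounds incubated with the reaction mixture one hour at room temperature in duplicate, then development buffer added for another hour. IC50 from non-linear regression of dose-response curves.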

[3] = test system: primary human fibroblasts derived from IPF patients (LL29 cells); assay: Inhibition of the fibrotic process: αSMA staining in TGF-β1 treated LL29 fibroblasts; type: cell-based; conditions: LL29 cells, TGF-β1 20 ng/mL, 4 days, % αSMA positive cells
Summary of the method: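 LL29 fibroblasts from IPF patients, in F12 medium with 1% FBS, treated with TGF-β1 plus compound; TGF-β1 with DMSO as positive control, DMSO alone as negative control. After 4 days' incubation, SYTOX green nucleic acid stain added at 1 μM final, 30 min at room temperature.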

[4] = test system: Wnt activity (Sp5-Luc reporter in SW480 cells); assay: Screening assay for Wnt activity: Sp5-Luc reporter gene assay in SW480 colon carcinoma cells; type: cell-based, human; conditions: 36 to 48 hours
Summary of the method: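 EC50 values come from a variable-slope four-parameter fit of luminescence normalized to DMSO-only wells. The read-out follows 36–48 h incubation at 37 °C, 5% CO2, in DMEM containing 1% fetal bovine serum. Cells are hygromycin-selected SW480 stably expressing firefly luciferase under a Wnt-responsive Sp5 promoter (eight TCF/LEF sites).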

[5] = recombinant DYRK1A, 30 μM ATP, one hour, column head prints EC50
[6] = recombinant GSK3β, 46 μM ATP, one hour, column head prints EC50
[7] = Homo sapiens, Mesenchymal stem cells, 96 h

GSK3β kinase, sequence (P49841 whole entry): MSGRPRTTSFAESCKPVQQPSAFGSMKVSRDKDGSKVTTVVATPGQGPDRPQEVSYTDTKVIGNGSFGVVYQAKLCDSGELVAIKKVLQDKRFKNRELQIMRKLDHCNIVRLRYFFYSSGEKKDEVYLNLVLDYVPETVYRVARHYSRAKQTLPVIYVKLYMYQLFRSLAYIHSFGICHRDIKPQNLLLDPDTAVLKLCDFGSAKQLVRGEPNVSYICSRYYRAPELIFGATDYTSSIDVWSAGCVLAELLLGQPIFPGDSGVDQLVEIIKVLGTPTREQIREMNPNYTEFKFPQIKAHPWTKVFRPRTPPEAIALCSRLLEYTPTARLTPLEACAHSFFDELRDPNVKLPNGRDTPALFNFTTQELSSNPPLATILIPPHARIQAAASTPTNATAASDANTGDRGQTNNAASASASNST

Row | Compound | IC50 (DYRK1A kinase; [5]) [µM] | EC50 (IL-6) [µM] | EC50 [1] [µM] | EC50 [2] [µM] | IC50 (GSK3β kinase; [6]) [µM] | EC50 [4] [µM] | IC50 (DYRK1A kinase) [µM] | EC50 (IL-6; Homo sapiens, PBMC) [µM] | EC50 ([1]; Homo sapiens, 96 h) [µM] | EC50 [2, 7] [µM] | IC50 (GSK3β kinase) [µM] | EC50 ([4]; Homo sapiens) [µM] | percent in parentheses under EC50 >100 [2] | EC50 [3] [µM] | inhibition at 10 µM (IL-6; Homo sapiens, PBMC) [%] | EC50 ([3]; Homo sapiens, Fibroblast, 96 h) [µM]
1 | 5-(1,2-Dimethyl-1H-imidazol-5-yl)-N-(2-methylthiazol-5-yl)-1H-indazole-3-carboxamide [Compound 139] | 0.004 | 3.11 | 0.473 | > 100 | 0.02 | 0.335 |  |  |  |  |  |  | (21.2%) | 1.24 |  | 
2 | Cn1cc(-c2cc(F)c3[nH]nc(C(=O)NC4CCC(F)(F)CC4)c3c2)cn1 [Compound 16, N-(4,4-Difluorocyclohexyl)-7-fluoro-5-(1-methyl-1H-pyrazol-4-yl)-1H-indazole-3-carboxamide] |  |  |  |  |  |  | 0.378 | > 10 | 7.89 | 1.38 | 0.041 | > 10 |  |  | 37.5 | 1.01
3 | O=C(Nc1ccc(OC(F)F)nc1)c1n[nH]c2ccc(-c3cnn(CCN4CCCC4)c3)cc12 [Compound 89, N-(6-(Difluoromethoxy)pyridin-3-yl)-5-(1-(2-(pyrrolidin-1-yl)ethyl)-1H-pyrazol-4-yl)-1H-indazole-3-carboxamide] |  |  |  |  |  |  | 0.304 | 6.59 | 4.6 |  | 0.656 | 4.34 |  |  |  | 1.2
4 | O=C(Nc1ccc(OC(F)F)nc1)c1n[nH]c2ccc(-c3cnn(CCN4CCOCC4)c3)cc12 [Compound 90, N-(6-(Difluoromethoxy)pyridin-3-yl)-5-(1-(2-morpholinoethyl)-1H-pyrazol-4-yl)-1H-indazole-3-carboxamide] |  |  |  |  |  |  | 0.329 | > 10 | 7.39 |  | 0.403 | 2.13 |  |  | 37 | > 10
5 | O=C(Nc1ccc(N2CCCC2)nc1)c1n[nH]c2ccc(-c3cnn(C4CC4)c3)cc12 [Compound 91, 5-(1-Cyclopropyl-1H-pyrazol-4-yl)-N-(6-(pyrrolidin-1-yl)pyridin-3-yl)-1H-indazole-3-carboxamide] |  |  |  |  |  |  | 0.05 | > 10 | 2.1 |  | 0.332 | 1.13 |  |  | 53.6 | 1.49
6 | O=C(Nc1ccc(N2CCCC2)nc1)c1n[nH]c2cc(F)c(-c3cnn(C4CC4)c3)cc12 [Compound 92, 5-(1-Cyclopropyl-1H-pyrazol-4-yl)-6-fluoro-N-(6-(pyrrolidin-1-yl)pyridin-3-yl)-1H-indazole-3-carboxamide] |  |  |  |  |  |  | 0.039 | > 10 | > 10 |  | 0.699 | 2.31 |  |  | 0 | 0.313
7 | CN1[C@@H]2CC[C@H]1CC(NC(=O)c1n[nH]c3ccc(-c4cnn(C)c4)cc13)C2 (stereo partly drawn) [Compound 146, 5-(1-Methyl-1H-pyrazol-4-yl)-N-((1R,5S)-8-methyl-8-azabicyclo [3.2.1]octan-3-yl)-1H-indazole-3-carboxamide] |  |  |  |  |  |  |  | > 10 | > 10 | > 100 |  | 1.58 | (35.9%) |  | 4.7 | > 10
8 | N-(6-(Difluoromethoxy)pyridin-3-yl)-5-(1-(piperidin-4-yl)-1H-pyrazol-4-yl)-1H-indazole-3-carboxamide [Compound 87] | 0.008 | 3.85 | 0.554 |  | 0.182 | 0.216 |  |  |  |  |  |  |  | 0.672 |  | 

Continued by falling IC50 (DYRK1A kinase), values first:

Row | IC50 (DYRK1A kinase; [5]) [µM] | EC50 (IL-6) [µM] | EC50 [1] [µM] | EC50 [2] [µM] | IC50 (GSK3β kinase; [6]) [µM] | EC50 [4] [µM] | IC50 (DYRK1A kinase) [µM] | EC50 (IL-6; Homo sapiens, PBMC) [µM] | EC50 ([1]; Homo sapiens, 96 h) [µM] | EC50 [2, 7] [µM] | IC50 (GSK3β kinase) [µM] | EC50 ([4]; Homo sapiens) [µM] | Compound | percent in parentheses under EC50 >100 [2] | EC50 [3] [µM] | inhibition at 10 µM (IL-6; Homo sapiens, PBMC) [%] | EC50 ([3]; Homo sapiens, Fibroblast, 96 h) [µM]
9 |  |  |  |  |  |  | 0.016 | 3.11 | 1.84 | 1.32 | 0.05 | > 10 | CC(C)CN1CC[C@H](NC(=O)c2n[nH]c3cc(F)c(-c4cnn(C)c4)cc23)[C@@H](F)C1 [Compound 34, 6-Fluoro-N-((3S,4S)-3-fluoro-1-isobutylpiperidin-4-yl)-5-(1-methyl-1H-pyrazol-4-yl)-1H-indazole-3-carboxamide] |  |  |  | 0.439
10 |  |  |  |  |  |  | 0.012 | > 10 | > 10 | 1.47 | 0.061 | > 10 | CC(C)CN1CC[C@H](NC(=O)c2n[nH]c3ccc(-c4cnn(C)c4)cc23)[C@H](F)C1 [Compound 30, N-((3R,4S)-3-Fluoro-1-isobutylpiperidin-4-yl)-5-(1-methyl-1H-pyrazol-4-yl)-1H-indazole-3-carboxamide] |  |  |  | > 10
11 |  |  |  |  |  |  | 0.006 | > 10 | 0.823 |  | 0.43 | 1.59 | O=C(Nc1ccc(N2CCCC2)nc1)c1n[nH]c2ccc(-c3cnn(C4CCNCC4)c3)cc12 [Compound 93, 5-(1-(Piperidin-4-yl)-1H-pyrazol-4-yl)-N-(6-(pyrrolidin-1-yl)pyridin-3-yl)-1H-indazole-3-carboxamide] |  |  | 5.5 | 1.2
12 |  |  |  |  |  |  | 0.004 | > 10 | 0.732 |  | 0.272 | 0.798 | O=C(Nc1ccc(N2CCCC2)nc1)c1n[nH]c2cc(F)c(-c3cnn(C4CCNCC4)c3)cc12 [Compound 94, 6-Fluoro-5-(1-(piperidin-4-yl)-1H-pyrazol-4-yl)-N-(6-(pyrrolidin-1-yl)pyridin-3-yl)-1H-indazole-3-carboxamide] |  |  | 5 | 1.39
13 |  |  |  |  |  |  | 0.002 | 2.27 | 0.354 |  | 0.098 | 0.269 | Cc1ncc(NC(=O)c2n[nH]c3ccc(-c4cnn(C5CCNCC5)c4)cc23)s1 [Compound 97, N-(2-Methylthiazol-5-yl)-5-(1-(piperidin-4-yl)-1H-pyrazol-4-yl)-1H-indazole-3-carboxamide] |  |  |  | 0.291
14 |  |  |  |  |  |  | 0.002 | 1.12 | 0.116 |  | 0.208 | 0.1 | Cc1ncc(NC(=O)c2n[nH]c3ccc(-c4cnn(C5CCN(C)CC5)c4)cc23)s1 [Compound 98, 5-(1-(1-Methylpiperidin-4-yl)-1H-pyrazol-4-yl)-N-(2-methylthiazol-5-yl)-1H-indazole-3-carboxamide] |  |  |  | 0.119
15 |  |  |  |  |  |  | 0.001 | 1 | 0.286 |  | 0.046 | 0.175 | CN1CCN(c2ccc(NC(=O)c3n[nH]c4cc(F)c(-c5cnn(C)c5)cc34)cn2)CC1 [Compound 95, 6-Fluoro-5-(1-methyl-1H-pyrazol-4-yl)-N-(6-(4-methylpiperazin-1-yl)pyridin-3-yl)-1H-indazole-3-carboxamide] |  |  |  | 0.195
16 |  |  |  |  |  |  | 0.001 | 1.21 | 0.118 |  | 0.03 | 0.165 | CN1CCC(Oc2ccc(NC(=O)c3n[nH]c4cc(F)c(-c5cnn(C)c5)cc34)cn2)CC1 [Compound 96, 6-Fluoro-5-(1-methyl-1H-pyrazol-4-yl)-N-(6-((1-methylpiperidin-4-yl)oxy)pyridin-3-yl)-1H-indazole-3-carboxamide] |  |  |  | 0.367
17 |  |  |  |  |  |  | 0.001 | 2.05 | 0.414 |  | 0.038 | 0.315 | Cn1cc(-c2cc3c(C(=O)Nc4ccc(OCCN5CCCC5)cc4)n[nH]c3cc2F)cn1 [Compound 155, 6-Fluoro-5-(1-methyl-1H-pyrazol-4-yl)-N-(4-(2-(pyrrolidin-1-yl)ethoxy)phenyl)-1H-indazole-3-carboxamide] |  |  |  | 0.167
